# Assay results from patent US7960438B2, “Use of agomelatine in obtaining medicaments intended for the treatment of generalized anxiety disorder” (Les Laboratoires Servier, priority 2006, dated 2011).
# System: patients suffering from Generalized Anxiety Disorder
# Experiment: Clinical study versus placebo in Generalized Anxiety Disorder
# Type: in vivo
# Procedure: A clinical study versus placebo has been carried out in 121 patients. Those 121 patients have been randomised in two parallel groups and received either agomelatine at 25 mg per day or placebo.
# After treatment for two weeks, and in case of low response, doses have been increased to 50 mg per day in double blind study for patients receiving agomelatine with a IVRS system (Interactive Voice Response System). Treatment for 12 weeks was carried out.
# The efficacy has been appreciated with evaluation tools recommended by the health authorities, such as the Hamilton Anxiety Scale (Hamilton M., J. Neurol. Neurosurg. Psychiat., 1959, 23, 56-62), or the Sheehan Disability Scale (International Clinical Psychopharmacology, 1996, 11, 89-95). The acceptability profile has also been evaluated.
structure (smiles),measurement,setting,value
"COc1ccc2cccc(CCNC(C)=O)c2c1 [agomelatine, N-[2-(7-methoxy-1-naphthyl)ethyl]acetamide]",acceptability profile for the patients,"25 mg per day (up to 50 mg per day), 12 weeks",good acceptability profile
same,difference between agomelatine group and placebo group on the total score of the Hamilton Anxiety Scale,"121 patients, 25 mg per day (increased to 50 mg per day in case of low response after two weeks), 12 weeks, p=0.040",−3.28
same,discontinuation syndrome when the treatment was stopped,after stopping 12 weeks treatment,absence of the discontinuation syndrome
